We go through six compounds from patent US20140349955A1, “USE OF FLUORINE-CONTAINING WATER SOLUBLE PLATINUM COMPLEX IN PREPARING DRUGS FOR PREVENTION AND TREATMENT OF CANCERS” (GUDUI BIOPHARMA TECHNOLOGY INC., priority 2011, published 2014).

The test system of assay [1] is A549. Nature of the assay: MTS cytotoxicity test, A549. The assay is classed as cell-based. The following applies: 96 h, read-out: IC50 value in human tumor cells. Here is the method: (§1) Containing 10% bovine fetal serum, 1 mM of sodium pyruvate, 2 mM of L-glutamine, 50 U/mL of penicillin, 50 μg/mL of streptomycin
(§2) Human tumor cells: dul45-human prostate cancer; MCF-7-human breast cancer; SK0V3-human ovarian carcinoma, HT-29-human colon cancer; A549-human non-small cell lung cancer (adenocarcinoma), H460-human non-small cell lung cancer (large cell carcinoma), and animal tumor cells: L1210-mice leukemia cells used in the following activity test experiments were all purchased from Shanghai An Yan Commercial Trade Co., Ltd.
(§3) MTS test method was used in cytotoxicity assay. The tumor cells of logarithmic phase were collected, and then the concentration of cell suspension was adjusted, 100 μL of the cell suspension was added to each well, the cells were placed at 1000-10000 cells/well (edge well filled with sterile PBS). Cells were incubated at 37° C. with 5% CO2 to make cell monolayer overspread the bottom of each well (96-well flat-bottomed microplate). 100 μL of different concentrations of the test compounds was added to each well. Each condition was measured in five replicates. The microplate was incubated at 37° C. with 5% CO2 for 96 h and checked with inverted microscope. MTS working reagent: To 2 mL of MTS (2 mg/mL, prepared by DPBS) was added 100 μL of PMS (1 mg/mL, prepared by DPBS). The cell culture medium was discarded after centrifugation, the cell culture plate was carefully washed 2-3 times with PBS. Before detecting the absorbance value (OD), to each sample containing well was added 100 μL of cell culture medium, then 20 μL of MTS working reagent was added. After incubation at 37° C. with 5% CO2 for 2 h, the OD (optical density) value was detected at 490 nm.
(§4) Control group: the conditions are the same as the above without adding the active ingredient of antitumor agents, and the OD value was detected at 490 nm on the end of the experiment.
(§5) The cell inhibiting rate of the drugs to tumor cell growth was calculated according to the following formula:
(§6) 1) Cell viability (%)=OD of treated group/OD of control group×100%
(§7) 2) The cell viabilities under the different drug concentrations were determined, and then plotted against drug concentration. The IC50 value is the corresponding concentration in the obtained curve when the cell viability was 50%.
A general note: Tetrazolium assays rely on reduction of a dye to a coloured formazan, in cell work by metabolically active cells.

Another assay has as its system SKOV3. The assay can be described thus: MTS cytotoxicity test, SKOV3. The assay is classed as cell-based. The settings on record: 96 h, read-out: IC50 value in human tumor cells. The protocol:
as §1, §2, §3, §4, §5, §6, §7

Assay [2] concerns MCF7. The assay can be described thus: MTS cytotoxicity test, MCF7. In kind it is cell-based. The settings on record: 96 h, read-out: IC50 value in human tumor cells. The protocol:
as §1, §2, §3, §4, §5, §6, §7

The test system of assay [3] is HT29. The assay can be described thus: MTS cytotoxicity test, HT29. In kind it is cell-based. The following applies: 96 h, read-out: IC50 value in human tumor cells. The protocol: as §1, §2, §3, §4, §5, §6, §7
The subject of assay [4] is DU145. Nature of the assay: MTS cytotoxicity test, DU145. In kind it is cell-based. The settings on record: 96 h, read-out: IC50 value in human tumor cells. The protocol:
as §1, §2, §3, §4, §5, §6, §7

Assay [5] deals with H460. Nature of the assay: MTS cytotoxicity test, H460. The assay is classed as cell-based. The settings on record: 96 h, read-out: IC50 value in human tumor cells. Here is the method: as §1, §2, §3, §4, §5, §6, §7
Assay [6] has as its system A549. Nature of the assay: Synergistic cytotoxicity test (MTS), A549. In kind it is cell-based, human. The following applies: 96 h. Here is the method: (§8) Containing 10% bovine fetal serum, 1 mM of sodium pyruvate, 2 mM of L-glutamine, 50 U/mL of penicillin, 50 μg/ mL of streptomycin.
(§9) Human tumor cells: du145-human prostate cancer; MCF-7-human breast cancer; SK0V3-human ovarian carcinoma, HT-29-human colon cancer; A549-human non-small cell lung cancer (adenocarcinoma), H460-human non-small cell lung cancer (large cell carcinoma), and animal tumor cells: L1210-mice leukemia cells used in the following activity test experiments were all purchased from Shanghai An Yan Commercial Trade Co., Ltd.
as §3, with “certain concentration solution of a mixture” for “different concentrations”, “fluorine-containing water-soluble platinum complex with other antitumor agents” for “test compounds”
(§10) Each of above experiment was repeated five times, and the cell viability was calculated according to the mean OD values.
(§11) Cell Viability (%)=(treated group OD value/control group OD value)×100
(§12) Control group: the conditions are the same as the above without adding the tested drug mixture (100 μL of culture medium was added in stead), and finally the absorbance was measured at 490 nm to obtain the OD value of the tumor cells.
(§13) Drug Group-1: only the fluorine-containing water-soluble platinum complex was added under the above conditions to obtain cell viability of tumor cells.
(§14) Drug Group-2: only the other chemotherapeutic drug (active ingredient) was added under the above conditions to obtain cell viability of tumor cells.
(§15) Drug Combination Group: the fluorine-containing water-soluble platinum complex and other chemotherapeutic drugs were added simultaneously under the above conditions to obtain cell viability of tumor cell. (2) Evaluation Method:
(§16) When the fluorine-containing water-soluble platinum complexes used in combination with other chemotherapy drugs, the inhibition effect on cancer cell proliferation is enhanced or synergistic, and the effect was calculated using the following formula:
(§17) Combination Effect (%)={[(A1-X)+(A2-X)]/(A1-A2)|}×100
(§18) wherein, A1 is the cell viability of drug group-1, A2 is the cell viability of drug group-2, X is the cell viability of drug combination group, (A1-A2)| is the absolute value of the cell viability difference between the two groups.
(§19) Calculated according to the above formula, when the results of [Combination Effect (%)]>+100%, that means the effect of inhibition on cell proliferation is enhanced or synergistic (3) Experimental Result: […]

The test system of a further assay is SK0V3. Nature of the assay: Synergistic cytotoxicity test (MTS), SKOV3. The assay is classed as cell-based, human. The settings on record: 96 h. The protocol: as §8, §9
as §3, with “certain concentration solution of a mixture” for “different concentrations”, “fluorine-containing water-soluble platinum complex with other antitumor agents” for “test compounds”
as §10, §11, §12, §13, §14, §15, §16, §17, §18, §19

Assay [7] concerns MCF7. Nature of the assay: Synergistic cytotoxicity test (MTS), MCF7. In kind it is cell-based, human. The settings on record: 96 h. The protocol:
as §8, §9
as §3, with “certain concentration solution of a mixture” for “different concentrations”, “fluorine-containing water-soluble platinum complex with other antitumor agents” for “test compounds”
as §10, §11, §12, §13, §14, §15, §16, §17, §18, §19

The test system of assay [8] is HT29. Nature of the assay: Synergistic cytotoxicity test (MTS), HT29. In kind it is cell-based, human. The following applies: 96 h. Here is the method:
as §8, §9
as §3, with “certain concentration solution of a mixture” for “different concentrations”, “fluorine-containing water-soluble platinum complex with other antitumor agents” for “test compounds”
as §10, §11, §12, §13, §14, §15, §16, §17, §18, §19

Assay [9] relates to DU145. Nature of the assay: Synergistic cytotoxicity test (MTS), DU145. The settings on record: 96 h. In kind it is cell-based, human. Here is the method: as §8, §9
as §3, with “certain concentration solution of a mixture” for “different concentrations”, “fluorine-containing water-soluble platinum complex with other antitumor agents” for “test compounds”
as §10, §11, §12, §13, §14, §15, §16, §17, §18, §19

Assay [10] relates to H460. The assay can be described thus: Synergistic cytotoxicity test (MTS), H460. In kind it is cell-based, human. The following applies: 96 h. The protocol:
as §8, §9
as §3, with “certain concentration solution of a mixture” for “different concentrations”, “fluorine-containing water-soluble platinum complex with other antitumor agents” for “test compounds”
as §10, §11, §12, §13, §14, §15, §16, §17, §18, §19

The mark [11] stands for this setting: other chemotherapy drug (at its listed dosage) combined with Complex 2 (dosage: 1 μM).
Where [12] appears, read: other chemotherapy drug (at its listed dosage) combined with Complex 3 (dosage: 1 μM).
The mark [13] stands for this setting: other chemotherapy drug (at its listed dosage) combined with Complex 5 (dosage: 1 μM).
Setting [14] is: other chemotherapy drug (at its listed dosage) combined with Complex 6 (dosage: 1 μM).

The IC50 is the midpoint of a concentration-inhibition curve. Turning to `O=C1[O][Pt]2([NH][C@@H]3CCCC[C@H]3[NH]2)[O]C(=O)C1(F)CCOC1O[C@H](CO)[C@@H](O)[C@H](O)[C@H]1O` (stereo partly drawn) [Complex 2, cis-[trans-(1R, 2R)-diaminocyclohexane] Pt (II) (1—O—D-glucoside-propane-3-fluoro-3,3-dicarb oxylate)], the half-maximal inhibitory concentration (IC50) in the assay with A549 [1] came out at 0.675 µM; with SKOV3, 10 µM; with MCF7 [2] it was 0.656 µM; in the assay with HT29 [3], 1.55 µM; in the assay on DU145 [4], 4.85 µM; with H460 [5], 9.87 µM.

As for `O=C1[O][Pt]2([NH][C@@H]3CCCC[C@H]3[NH]2)[O]C(=O)C1(F)CCCOC1O[C@H](CO)[C@@H](O)[C@H](O)[C@H]1O` (some centres unmarked) [Complex 3], the concentration for half-maximal inhibition (IC50) in the assay with A549 [1] is 0.855 µM; in the assay with SKOV3, 10.1 µM; in the assay on MCF7 [2], 0.923 µM; in the assay on HT29 [3], 2.01 µM; with DU145 [4], 6.6 µM; with H460 [5] it was 10.1 µM.

For `O=C1[O][Pt]2([NH]C3CCCCC3[NH]2)[O]C(=O)C1(F)CCOC1OC(CO)C(O)C(O)C1O` (centres unmarked) [Complex 5], the IC50 was found to be 0.653 µM in the assay on A549 [1]; 2.22 µM with SKOV3; 0.411 µM in the assay with MCF7 [2]; 2.16 µM with HT29 [3]; 2.6 µM in the assay on DU145 [4]; 10.2 µM with H460 [5].

With `O=C1[O][Pt]2([NH]C3CCCCC3[NH]2)[O]C(=O)C1(F)CCCOC1OC(CO)C(O)C(O)C1O` (centres unmarked) [Complex 6], the half-inhibitory concentration (IC50) in the assay on A549 [1] came to 21.8 µM; with SKOV3 it was 22.2 µM; in the assay on MCF7 [2] it was 2.04 µM; with HT29 [3] it was 2.3 µM; in the assay with DU145 [4] it was 9.96 µM; with H460 [5] it was 22.4 µM.

Consider `O=C1[O][Pt]2([NH]C3CCCCC3[NH]2)[O]C(=O)C1(F)CCOC1OC(CO)C(O)C(O)C1O` (centres unmarked) [Complex 8], for which the IC50 came to 5.12 µM in the assay on A549 [1]; 49.4 µM in the assay with SKOV3; 5.1 µM in the assay with MCF7 [2]; 1.07 µM with HT29 [3]; 5.11 µM with DU145 [4]; 10 µM in the assay with H460 [5].

Turning to `N.N.[Cl][Pt+2][Cl]` [Transplatin], the “the effect of drug combination (Combination Effect)” value (shortened to “the effect of drug combination”) in the assay on A549 [6] (setting [11]) was “⊚ (⊚ represents the effect of drug combination > 300%)”; with A549 [6] (setting [12]) it was “⊚ (⊚ represents the effect of drug combination > 300%)”; in the assay with SK0V3 (other chemotherapy drug (at its listed dosage) combined with Complex 2 (dosage: 1 μM), SLOV3), “○ (○ represents: 100% < the effect of drug combination < 300%)”; in the assay with SK0V3 (other chemotherapy drug (at its listed dosage) combined with Complex 3 (dosage: 1 μM), SlOV3), “○ (○ represents: 100% < the effect of drug combination < 300%)”; with SK0V3 (other chemotherapy drug (at its listed dosage) combined with Complex 5 (dosage: 1 μM), SLOV3) it was “○ (○ represents: 100% < the effect of drug combination < 300%)”; in the assay with SK0V3 (other chemotherapy drug (at its listed dosage) combined with Complex 6 (dosage: 1 μM), SLOV3), “○ (○ represents: 100% < the effect of drug combination < 300%)”. In addition, the “the effect of drug combination” value in the assay on MCF7 [7] (setting [11]), in the assay with MCF7 [7] (setting [12]), in the assay with MCF7 [7] (setting [13]), in the assay with MCF7 [7] (setting [14]), in the assay on HT29 [8] (setting [11]) and in the assay with HT29 [8] (setting [12]) was “⊚ (⊚ represents the effect of drug combination > 300%)” each time. Further, the “the effect of drug combination” value with HT29 [8] (setting [13]) is reported as “⊚ (⊚ represents the effect of drug combination > 300%)”; in the assay with HT29 [8] (setting [14]) it was “⊚ (⊚ represents the effect of drug combination > 300%)”; in the assay on DU145 [9] (setting [11]), “○ (○ represents: 100% < the effect of drug combination < 300%)”; in the assay with DU145 [9] (setting [12]), “○ (○ represents: 100% < the effect of drug combination < 300%)”; with DU145 [9] (setting [13]) it was “○ (○ represents: 100% < the effect of drug combination < 300%)”; with DU145 [9] (setting [14]) it was “○ (○ represents: 100% < the effect of drug combination < 300%)”. Moreover, the “the effect of drug combination” value with H460 [10] (setting [13]) and with H460 [10] (setting [14]) was “⊚ (⊚ represents the effect of drug combination > 300%)” throughout.
